The values that follow come from US11478474B2, “2-(3′-(hydroxymethyl)-1-methyl-5-((5-(2-methyl-4-(oxetan-3-yl)piperazin-1-yl)pyridin-2-yl)amino)-6-oxo-1,6-dihydro-[3,4′-bipyridin]-2′-yl)-7,7-dimethyl-7,8-dihydro-2H-cyclopenta[4,5]pyrrolo[1,2-a]pyrazin-1(6H)-one as a BTK inhibitor” (HUTCHISON MEDIPHARMA LIMITED, priority 2020, dated 2022).

Test [1] has as its target phosphorylated BTK in Ramos cells (Homo sapiens (Human), UniProt Q06187). The experiment in a line: Determination of phosphorylated BTK in Ramos cells (BTK phospho-Y223 HTRF). It counts as cell-based. The conditions noted are these: anti-human IgM + hydrogen peroxide stimulation. In outline:
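Ramos cells starved 2 h in 1% FBS, then treated 1 h with compound (0.00018–3.0 μM, 0.3% DMSO). They were then stimulated 10 min at 37° C. with anti-human IgM (10 μg/mL) plus H2O2 (3.3 mM). Lysates read by BTK phospho-Y223 HTRF (665/615 nm ratio); IC50 fitted from inhibition normalized to stimulated and unstimulated controls.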
On the technique in general: In TR-FRET formats the signal depends on donor and acceptor labels being close together.

A further test deals with BTK recombinant protein (Homo sapiens (Human), UniProt Q06187). The experiment in a line: Determination of biochemical BTK (Z'-LYTE kinase assay). Put shortly:
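Human BTK recombinant kinase (3.32 nM final) was preincubated with compound for 30 min at 4 °C. Reaction ran 1 h at room temperature with Tyr01 FRET peptide (2 μM) and ATP (32 μM); development protease then added. Coumarin 445 nm/fluorescein 520 nm emission ratio (400 nm excitation) gave inhibition across 8 concentrations, 3000–1.37 nM.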

Sequence of BTK recombinant protein (Q06187 whole entry): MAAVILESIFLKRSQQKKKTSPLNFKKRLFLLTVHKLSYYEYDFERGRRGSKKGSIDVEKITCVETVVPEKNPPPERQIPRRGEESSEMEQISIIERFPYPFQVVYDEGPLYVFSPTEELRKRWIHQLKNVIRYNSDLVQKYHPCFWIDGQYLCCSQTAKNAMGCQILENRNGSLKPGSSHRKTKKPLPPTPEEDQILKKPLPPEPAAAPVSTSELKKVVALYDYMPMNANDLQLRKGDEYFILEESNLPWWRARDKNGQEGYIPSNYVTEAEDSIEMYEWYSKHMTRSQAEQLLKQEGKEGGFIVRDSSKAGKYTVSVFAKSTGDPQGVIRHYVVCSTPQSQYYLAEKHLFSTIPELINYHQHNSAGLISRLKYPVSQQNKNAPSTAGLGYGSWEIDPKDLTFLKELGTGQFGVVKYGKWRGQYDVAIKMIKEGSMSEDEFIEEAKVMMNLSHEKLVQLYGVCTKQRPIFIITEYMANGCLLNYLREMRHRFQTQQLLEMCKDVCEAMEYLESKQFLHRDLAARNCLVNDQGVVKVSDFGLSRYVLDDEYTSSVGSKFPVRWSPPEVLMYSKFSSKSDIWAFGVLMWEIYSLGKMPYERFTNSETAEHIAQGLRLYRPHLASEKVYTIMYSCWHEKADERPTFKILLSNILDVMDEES
Sequence of phosphorylated BTK in Ramos cells (Q06187 whole entry): as above

By IC50 is commonly meant the concentration that gives 50% inhibition. For `COCCN1CCn2nc(Nc3cc(-c4ccnc(-n5ccn6c7c(cc6c5=O)CC(C)(C)C7)c4CO)cn(C)c3=O)cc2[C@H]1C` [Compound 117], the figures for the IC50 (in test [1]; on BTK recombinant protein) were 7 nM and 4 nM, respectively.

Consider `CC[C@H]1CN(C2COC2)CCN1c1ccc(Nc2cc(-c3ccnc(-n4ccn5c6c(cc5c4=O)CC(C)(C)C6)c3CO)cn(C)c2=O)nn1` [Compound 217], for which the IC50 amounted to 10 nM in test [1] and 8 nM at BTK recombinant protein.

`CC(C)Nc1cc(-c2ccnc(-n3ccn4c5c(cc4c3=O)CC(C)(C)C5)c2CO)cn(C)c1=O` [Compound 40]: the IC50 (in test [1]; at BTK recombinant protein) was greater than 3000 nM in each case.

On to `Cn1cc(-c2ccnc(-n3ccn4c5c(cc4c3=O)CC(C)(C)C5)c2CO)cc(Nc2ccc(N3CCN(C4COC4)CC3(C)C)cn2)c1=O` [Compound 95], for which the IC50 in test [1] was 3 nM; at BTK recombinant protein it was 10 nM.

Turning to `COCCN1C[C@H](C)N(c2ccc(Nc3cc(-c4ccnc(-n5ncn6c7c(cc6c5=O)CC(C)(C)C7)c4CO)cn(C)c3=O)nc2)C[C@H]1C` [Compound 207], the IC50 in test [1] was found to be 8 nM; at BTK recombinant protein, 11 nM.

Consider `COCC(C)N1CCN(c2ccc(Nc3cc(-c4ccnc(-n5ncn6c7c(cc6c5=O)CC(C)(C)C7)c4CO)cn(C)c3=O)nc2)[C@@H](C)C1` (mixture of isomers) [Compound 219], for which the values for the IC50 (in test [1]; on BTK recombinant protein) were 11 nM and 4 nM, respectively.

On to `Cn1cc(-c2ccnc(-n3ccn4c5c(cc4c3=O)CC(C)(C)C5)c2CO)cc(Nc2ccc(F)cn2)c1=O` [Compound 90], for which the values for the IC50 (in test [1]; on BTK recombinant protein) were 7 nM and 26 nM, respectively.

Regarding `Cn1cc(-c2ccnc(-n3ncn4c5c(cc4c3=O)CC(C)(C)C5)c2CO)cc(Nc2cc3n(n2)CCOC3)c1=O` [Compound 156], the figures for the IC50 (in test [1]; on BTK recombinant protein) were 12 nM and 6 nM, respectively.

As to `CCn1cc(Nc2cc(-c3ccnc(-n4ccn5c6c(c(F)c5c4=O)CCCC6)c3CO)cn(C)c2=O)cn1` [Compound 180], the IC50 in test [1] was determined as 84 nM; on BTK recombinant protein, 16 nM.

In the case of `C[C@H]1CN(CC#N)CCN1c1ccc(Nc2cc(-c3ccnc(-n4ccn5c6c(cc5c4=O)CC(C)(C)C6)c3CO)cn(C)c2=O)nc1` [Compound 102], the IC50 in test [1] worked out at 2 nM; on BTK recombinant protein, 11 nM.

In the case of `COCC(C)N1CCn2nc(Nc3cc(-c4ccnc(-n5ccn6c7c(cc6c5=O)CC(C)(C)C7)c4CO)cn(C)c3=O)cc2C1` (stereo not drawn) [Compound 115], the IC50 in test [1] is 10 nM; at BTK recombinant protein, 12 nM.

With `[2H]C(O)c1c(-c2cc(Nc3ccc(N4CCN(C5([2H])COC5)C[C@@H]4C)cn3)c(=O)n(C)c2)ccnc1-n1ccn2c3c(cc2c1=O)CC(C)(C)C3` (mixture of isomers) [Compound 101], the results for the IC50 (in test [1]; on BTK recombinant protein) were 2 nM and 6 nM, respectively.

Take `C[C@H]1CN(C2COC2)CCN1c1ccc(Nc2cc(-c3ccnc(-n4ccn5c6c(cc5c4=O)CCCCC6)c3CO)cn(C)c2=O)nc1` [Compound 92]: the IC50 in test [1] amounted to 7 nM; on BTK recombinant protein, 10 nM.

Consider `C[C@@H]1CN(c2ccc(Nc3cc(-c4ccnc(-n5ccn6c7c(cc6c5=O)CC(C)(C)C7)c4CO)cn(C)c3=O)nn2)[C@@H](C)CN1C1COC1` [Compound 205], for which the IC50 (in test [1]; at BTK recombinant protein) was 15 nM throughout.

Consider `Cn1nc(Nc2cc(-c3ccnc(-n4ccn5c6c(cc5c4=O)CC(C)(C)C6)c3CO)cn(C)c2=O)cc1C(=O)N1CCOCC1` [Compound 99], for which the figures for the IC50 (in test [1]; on BTK recombinant protein) were 4 nM and 6 nM, respectively.

Turning to `COCCN1CCn2nc(Nc3cc(-c4ccnc(-n5ccn6c7c(cc6c5=O)CC(C)C7)c4CO)cn(C)c3=O)cc2C1` (stereo not drawn) [Compound 168], the results for the IC50 (in test [1]; on BTK recombinant protein) were 20 nM and 28 nM, respectively.

Consider `Cn1cc(-c2ccnc(-n3ccn4c5c(cc4c3=O)CC(C)(C)C5)c2CO)cc(Nc2ccc(C3CCN(C4COC4)CC3)nn2)c1=O` [Compound 200], for which the IC50 in test [1] turned out to be 21 nM; on BTK recombinant protein it was 4 nM.

As for `COCCN1CCn2nc(Nc3cc(-c4ccnc(-n5nc(C)n6c7c(cc6c5=O)CC(C)(C)C7)c4CO)cn(C)c3=O)cc2C1C` (racemic) [Compound 121], the IC50 in test [1] was 21 nM; at BTK recombinant protein it was 23 nM.

For the molecule `C[C@H]1CN(C2COC2)CCN1c1ccc(Nc2cc(-c3ccnc(-n4ccn5c(cc6cccc(F)c65)c4=O)c3CO)cn(C)c2=O)nc1` [Compound 52], the IC50 (in test [1]; at BTK recombinant protein) was 18 nM throughout.

As for `Cn1cc(-c2ccnc(-n3ccn4c(c(F)c5ccccc54)c3=O)c2CO)cc(Nc2ccc(C3CN(C4COC4)C3)cn2)c1=O` [Compound 183], the IC50 in test [1] was determined as 67 nM; on BTK recombinant protein it was 25 nM.

Regarding `C[C@H]1CN2CCOCC2CN1c1ccc(Nc2cc(-c3ccnc(-n4ccn5c6c(cc5c4=O)CC(C)(C)C6)c3CO)cn(C)c2=O)nc1` (mixture of isomers) [Compound 236], the IC50 in test [1] was determined as 4 nM; on BTK recombinant protein, 24 nM.

On to `CC[C@H]1CN(C2COC2)CCN1c1ccc(Nc2cc(-c3ccnc(-n4ccn5c6c(c(F)c5c4=O)CCCC6)c3CO)cn(C)c2=O)nc1` [Compound 227], for which the IC50 in test [1] worked out at 5 nM; on BTK recombinant protein, 8 nM.

With `C[C@H]1CN(C2COC2)CCN1c1ccc(Nc2cc(-c3ccnc(-n4ncn5c(c(F)c6ccccc65)c4=O)c3CO)cn(C)c2=O)nc1` [Compound 149], the IC50 in test [1] turned out to be 8 nM; on BTK recombinant protein it was 19 nM.

`Cn1cc(-c2ccnc(-n3ccn4c5c(cc4c3=O)CC(C)(C)C5)c2CO)cc(Nc2ccc(N3C[C@@H]4C[C@H]3CN4C3COC3)cn2)c1=O` [Compound 230]: the IC50 turned out to be 20 nM in test [1] and 29 nM on BTK recombinant protein.

On to `C[C@H]1CN(C2COC2)CCN1c1ccc(Nc2cc(-c3ccnc(-n4cnn5c6c(cc5c4=O)CCCC6)c3CO)cn(C)c2=O)nc1` [Compound 184], for which the values for the IC50 (in test [1]; on BTK recombinant protein) were 80 nM and 77 nM, respectively.

For `Cc1nn(-c2nccc(-c3cc(Nc4ccc(N5CCN(C6COC6)C[C@@H]5C)cn4)c(=O)n(C)c3)c2CO)c(=O)c2cc3c(n12)CC(C)(C)C3` [Compound 104], the IC50 in test [1] worked out at 6 nM; on BTK recombinant protein it was 10 nM.

As for `Cn1cc(-c2ccnc(-n3ncn4c5c(cc4c3=O)CC(C)(C)C5)c2CO)cc(Nc2ccc(C3CN(C4COC4)C3)cn2)c1=O` [Compound 141], the IC50 was found to be 13 nM in test [1] and 14 nM on BTK recombinant protein.

For the molecule `COC1CN(c2ccc(Nc3cc(-c4ccnc(-n5ccn6c7c(cc6c5=O)CC(C)(C)C7)c4CO)cn(C)c3=O)nn2)C1` [Compound 159], the IC50 is 26 nM in test [1] and 6 nM at BTK recombinant protein.

As for `[2H]C(O)c1c(-c2cc(Nc3ccc(N4CCN(C5COC5)C[C@@H]4C)cn3)c(=O)n(C)c2)ccnc1-n1ccn2c3c(cc2c1=O)CC(C)(C)C3` (stereo partly drawn) [Compound 100], the IC50 worked out at 2 nM in test [1] and 5 nM at BTK recombinant protein.

Consider `Cn1cc(-c2ccnc(-n3ccn4c5c(cc4c3=O)CCC5)c2CO)cc(Nc2cc3n(n2)CCN(C2COC2)C3)c1=O` [Compound 134], for which the values for the IC50 (in test [1]; at BTK recombinant protein) were 54 nM and 59 nM, respectively.

As for `C[C@H]1CN(C2COC2)CCN1c1ccc(Nc2cc(-c3ncnc(-n4ccn5c6c(cc5c4=O)CC(C)(C)C6)c3CO)cn(C)c2=O)nc1` [Compound 65], the IC50 in test [1] was 2 nM; on BTK recombinant protein, 14 nM.

Take `COCCN1CCn2nc(Nc3cc(-c4ccnc(-n5ncn6c7c(cc6c5=O)CCCC7)c4CO)cn(C)c3=O)cc2C1` [Compound 163]: the IC50 in test [1] turned out to be 34 nM; at BTK recombinant protein it was 8 nM.

In the case of `CCN(CCOC)c1ccc(Nc2cc(-c3ccnc(-n4ccn5c6c(cc5c4=O)CC(C)(C)C6)c3CO)cn(C)c2=O)nc1` [Compound 1, 2-(5-((5-(ethyl (2-methoxyethyl)amino)pyridin-2-yl)amino)-3′-(hydroxymethyl)-1-methyl-6-oxo-1,6-dihydro-[3,4′-bispyridin]-2′-yl)-7,7-dimethyl-7,8-dihydro-2H-cyclopenta[4,5]pyrrolo[1,2-a]pyrazin-1(6H)-one], the IC50 in test [1] stood at 5 nM; at BTK recombinant protein, 35 nM.

As for `COCc1c(-c2cc(Nc3ccc(N4CCN(C5COC5)C[C@@H]4C)cn3)c(=O)n(C)c2)ccnc1-n1ccn2c3c(cc2c1=O)CC(C)(C)C3` [Compound 228], the IC50 was 139 nM in test [1] and 171 nM at BTK recombinant protein.

As to `COC1CN(c2ccc(Nc3cc(-c4ccnc(-n5ccn6c7c(cc6c5=O)CC(C)(C)C7)c4CO)cn(C)c3=O)nc2)C1` [Compound 35], the values for the IC50 (in test [1]; on BTK recombinant protein) were 6 nM and 17 nM, respectively.

For `C[C@@H]1CN(c2ccc(Nc3cc(-c4ccnc(-n5ccn6c(c(F)c7cc(F)ccc76)c5=O)c4CO)cn(C)c3=O)nc2)[C@@H](C)CN1C1COC1` [Compound 61], the IC50 came out at 2 nM in test [1] and 4 nM at BTK recombinant protein.

As for `Cn1cc(-c2ccnc(-n3ccn4c5c(cc4c3=O)CC(C)(C)C5)c2CO)cc(Nc2cc3n(n2)CCN(C#N)C3)c1=O` [Compound 135, 2-((2′-(7,7-dimethyl-1-oxo-1,6,7,8-tetrahydro-2H-cyclopenta[4,5]pyrrolo[1,2-a]pyrazin-2-yl)-3′-(hydroxymethyl)-1-methyl-6-oxo-1,6-dihydro-[3,4′-bispyridin]-5-yl)amino)-6,7-dihydropyrazolo[1,5-a]pyrazin-5(4H)-nitrile], the IC50 in test [1] was determined as 5 nM; at BTK recombinant protein, 8 nM.

On to `COCCn1cc(Nc2cc(-c3ccnc(-n4ccn5c6c(cc5c4=O)CC(C)(C)C6)c3CO)cn(C)c2=O)cn1` [Compound 175], for which the IC50 was determined as 40 nM in test [1] and 71 nM on BTK recombinant protein.

Turning to `Cn1cc(-c2ccnc(-n3ccn4c5c(cc4c3=O)CC(C)(C)C5)c2CO)cc(Nc2ccc(NC3CCCOC3)cn2)c1=O` (stereo not drawn) [Compound 45], the values for the IC50 (in test [1]; at BTK recombinant protein) were 5 nM and 11 nM, respectively.
